Values joined by “and” are separate entries in the source; they are usually repeats but may differ in a detail not shown here. Equal entries are not always repeated. Where two headings read alike, the source gives them in different places.
Key:
[1] = test system: K562 human myelogeneous leukaemia cell line; assay: Cytotoxicity/growth inhibition assay (MTT), K562; format: cell-based; conditions: Homo sapiens, K562; MTT; read-out: K562 IC50
Procedure, shortened: (§1)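 Growth inhibition of P388 murine and K562 human leukaemia cells measured by MTT assay.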

tubulin = test system: T1, tubulin; assay: Inhibition of tubulin assembly; format: biochemical; conditions: concentration required to reduce assembly of tubulin by 50%
T1 construct: other: concentration required to reduce assembly of tubulin by 50%
Protocol: (§2) The following assays (1–5) were carried out as described in our paper (Woods, et al, British Journal of Cancer, 71, 705–711 (1995)). In addition to the cell lines described in this paper, other established human cell lines (K562, HUVEC, H460, BE, H529, and HT29) were used in the cytotoxicity/growth inhibition assay. • (1) Inhibition of tubulin assembly. The figure quoted is the concentration required to reduce assembly of tubulin by 50%. Tubulin assembly is monitored by light scatter/absorption at 350 nm.

A2780 = assay: Cytotoxicity/growth inhibition assay (MTT), A2780; format: cell-based
Procedure, shortened: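 MTT cytotoxicity/growth-inhibition assay in human cell lines including A2780, A2780/ADR, H460 and HUVEC.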

[2] = test system: P388 murine leukaemia cell line; assay: Cytotoxicity/growth inhibition assay (MTT), P388; format: cell-based
Procedure, shortened: as §1

HUVEC = assay: Growth inhibition studies using HUVEC; format: cell-based, human
Protocol: as §2
(§3) (2) Competition for the colchicine binding site on tubulin. The figure quoted represents the % of ^3H-colchicine bound following co-incubation of test compound and ^3H-cochicine with isolated tubulin. Where ester pro-drugs were used the experiments were carried out in the presence and absence of porcine liver esterase. • (3) Cytotoxicity/growth inhibition assay. This was carried out by the MTT assay. • (4) Permeability (shape-change) assay in endothelial cells. This was carried out using a method based on that of Watts et al. (Anticancer Res., 17, 71–75, (1997)). This involved the diffusion of a fluorescently labelled dextran through a barrier of endothelial cells (HUVEC) grown to confluence on a porous membrane. The effect of agents to alter the shape of these cells results in an increase in the permeability of the cells to the dye. The figure represents the increase in permeability over control cultures when drug is added (30 minutes, 1 mM.). • (5) Experiments to study the anti-vascular effects of these agents were carried out as described previously by our group. (Zhao et al, European Journal of Nuclear Medicine, 26, 231–238 (1999)). The anti-vascular effects of the agents were monitored by either positron emission tomography (PET) or by histologogical examination following treatment of mice bearing T50:80 murine breast tumours, or H460 human lung tumours. • (6) Anti-tumour efficacy of agents was determined in xenografts of H460 human lung cancer. Animals (n=5) were trated either with 5 daily injections and tumour size measured with time following treatment. • (7) The pharmacokinetic profile of agents was determined in mice following injection with drug. Blood was taken at various times following treatment and analysed by HPLC with UV detection. The HPLC conditions were isocratic using a 5 micron C18 BDS column (150×4.6) ad eluting with 75% MeOH in water with a detection wavelength of 290 nm. […] (AND(P)H:quinone oxidoreductace, EC 1.6.99.2). DT-diaphorase is an enzyme over-expressed in a number of human tumours. […] This two-electron reducing enzyme can be used to selectively activate prodrugs within cancers which over-express the enzyme.

[3] = test system: colchicine binding site on tubulin; assay: Competition for the colchicine binding site on tubulin
[4] = test system: H460 human lung cell line; assay: Cytotoxicity/growth inhibition assay (MTT), H460; format: cell-based
Protocol: as §2, §3

[5] = test system: diaphorase null H596 cell line; assay: Cytotoxicity/growth inhibition assay (MTT), H596; format: cell-based
Protocol: as §2
(2) Competition for the colchicine binding site on tubulin. The figure quoted represents the % of ^3H-colchicine bound following co-incubation of test compound and ^3H-cochicine with isolated tubulin. Where ester pro-drugs were used the experiments were carried out in the presence and absence of porcine liver esterase. • (3) Cytotoxicity/growth inhibition assay. This was carried out by the MTT assay. • (4) Permeability (shape-change) assay in endothelial cells. This was carried out using a method based on that of Watts et al. (Anticancer Res., 17, 71–75, (1997)). This involved the diffusion of a fluorescently labelled dextran through a barrier of endothelial cells (HUVEC) grown to confluence on a porous membrane. The effect of agents to alter the shape of these cells results in an increase in the permeability of the cells to the dye. The figure represents the increase in permeability over control cultures when drug is added (30 minutes, 1 mM.). • (5) Experiments to study the anti-vascular effects of these agents were carried out as described previously by our group. (Zhao et al, European Journal of Nuclear Medicine, 26, 231–238 (1999)). The anti-vascular effects of the agents were monitored by either positron emission tomography (PET) or by histologogical examination following treatment of mice bearing T50:80 murine breast tumours, or H460 human lung tumours. • (6) Anti-tumour efficacy of agents was determined in xenografts of H460 human lung cancer. Animals (n=5) were trated either with 5 daily injections and tumour size measured with time following treatment. • (7) The pharmacokinetic profile of agents was determined in mice following injection with drug. Blood was taken at various times following treatment and analysed by HPLC with UV detection. The HPLC conditions were isocratic using a 5 micron C18 BDS column (150×4.6) ad eluting with 75% MeOH in water with a detection wavelength of 290 nm. The retention time of 6.6 mins for 97–64H. • (8) Activation of quinone prodrugs by DT-diaphorase. (AND(P)H:quinone oxidoreductace, EC 1.6.99.2). DT-diaphorase is an enzyme over-expressed in a number of human tumours. We have recently shown this enzyme to be highly expressed in the endothelial cells of blood vessels. This two-electron reducing enzyme can be used to selectively activate prodrugs within cancers which over-express the enzyme. We have therefore synthesised quinone pro-drugs (97–96, 98–40, 98–23, 98–33, 98–24) which, upon reduction by the enzyme, produces an agent (a hydroquinone stilbene) which is cytotoxic.
A series of prodrugs capable of being activated by DT-diaphorase, an enzyme over-expressed in a wide range of human cancers and in endothelial cells of the vasculature were synthesised. The rationale for this is that these agents will be activated in situ by the tumours over-expressing the enzyme, thus giving rise to a high local concentration of active drug. This confers selectivity to this agent. These quinone prodrugs (97–96 and 98–23) were tested for their ability to act as substrates for DT-diaphorase. […] This agent may therefore have a role in the treatment of tumours that over-express DT-diaphorase. Similarly, these agents maybe selectively activated in the endothelial cells of the vasculature, thereby conferring a selective anti-vascular effect.

[6] = test system: H460 human lung cancer xenografts; assay: Anti-tumour efficacy in xenografts of H460 human lung cancer; format: in vivo, mice; conditions: H460 human lung cancer xenograft
Protocol: (§4) (2) Competition for the colchicine binding site on tubulin. The figure quoted represents the % of ^3H-colchicine bound following co-incubation of test compound and ^3H-cochicine with isolated tubulin. Where ester pro-drugs were used the experiments were carried out in the presence and absence of porcine liver esterase. • (3) Cytotoxicity/growth inhibition assay. This was carried out by the MTT assay. • (4) Permeability (shape-change) assay in endothelial cells. This was carried out using a method based on that of Watts et al. (Anticancer Res., 17, 71–75, (1997)). This involved the diffusion of a fluorescently labelled dextran through a barrier of endothelial cells (HUVEC) grown to confluence on a porous membrane. […] The anti-vascular effects of the agents were monitored by either positron emission tomography (PET) or by histologogical examination following treatment of mice bearing T50:80 murine breast tumours, or H460 human lung tumours. • (6) Anti-tumour efficacy of agents was determined in xenografts of H460 human lung cancer. Animals (n=5) were trated either with 5 daily injections and tumour size measured with time following treatment. • (7) The pharmacokinetic profile of agents was determined in mice following injection with drug. Blood was taken at various times following treatment and analysed by HPLC with UV detection. […]

DT-diaphorase = DT-diaphorase (Homo sapiens, UniProt P15559); assay: Activation of quinone prodrugs by DT-diaphorase; format: biochemical; conditions: comparable to RH1
Protocol: as §4

[7] = test system: H460 human lung xenograft; assay: Tumour damage in H460 human lung xenograft grown subcutaneously; format: in vivo; conditions: 0.75×MTD, i.p., twenty four hours following injection
Protocol: The effect of compounds 97–64H and 97–96 (quinone compound) was tested on H460 human lung xenograft grown subcutaneously by injecting equitoxic doses of the compounds (0.75×MTD).

Chain of DT-diaphorase (P15559 whole entry, species assumed): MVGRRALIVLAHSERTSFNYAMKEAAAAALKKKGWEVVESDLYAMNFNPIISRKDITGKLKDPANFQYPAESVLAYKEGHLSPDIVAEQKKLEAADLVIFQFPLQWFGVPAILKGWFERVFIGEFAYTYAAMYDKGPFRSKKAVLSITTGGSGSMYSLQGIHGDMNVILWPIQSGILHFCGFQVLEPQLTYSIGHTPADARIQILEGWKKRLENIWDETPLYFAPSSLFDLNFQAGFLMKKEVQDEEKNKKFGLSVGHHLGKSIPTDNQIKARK

Row | melting point [°C] | Compound | IC50 (tubulin) [µM] | IC50 (A2780; read-out: A2780 IC50) [nM] | IC50 ([2]; MTT) [nM] | Colchicine % Inhibition [3] | also measured
1 | 132 to 134 | COC(=O)CCOc1cc([N+](=O)[O-])c(CCc2cc(/C=C\c3cc(OC)c(OC)c(OC)c3)ccc2OC)cc1OC | – | – | – | – | –
2 | 60 to 61 | COc1ccc(/C=C\c2cc(C)c(C)c(C)c2)cc1O [Compound 28, (Z)-1-(3′,4′,5′-trimethylphenyl)-2-(3″-hydroxy-4″-methoxyphenyl)ethene] | 1.5 | – | – | – | IC50 [1]: 21 nM
3 | – | COc1ccc(C=Cc2cc(OC)c(OC)c(OC)c2)cc1OC(=O)c1ccncc1 [Compound 96-167] | 9 | 0.37 | 0.8 | 3.8% | IC50 (HUVEC; Homo sapiens, HUVEC): 40 nM
4 | – | COc1ccc(C=Cc2cc(OC)c(OC)c(OC)c2)cc1OC(=O)c1ccncc1 [Compound 97-07] | 10 | 1.47 | 2.3 | 6.6% and 12.3% | IC50 ([4]; Homo sapiens, NCI-H460): 2780 nM
5 | – | COc1ccc(/C=C\c2cc(OC)c(OC)c(OC)c2)cc1Oc1c(F)c(F)nc(F)c1F [Compound 97-13H] | > 100 | 17.9 | 32.6 | 84.2% | IC50 [4]: 32 to 35 nM; IC50 (HUVEC): 45 nM
6 | – | COc1ccc(C=Cc2cc(OC)c(OC)c(OC)c2)cc1F [Compound 97-64L] | > 100 | 113 | 171 | 43% | –
7 | – | COC1=CC(=O)C(/C=C\c2cc(OC)c(OC)c(OC)c2)=CC1=O [Compound 97-96, 2-Methoxy-5-[(Z)-2-(3′,4′,5′-trimethoxyphenyl)-vinyl]-[1,4]benzoquinone] | < 1.25 | – | – | – | IC50 (A2780; Homo sapiens, A2780, read-out: A2780 IC50): 190 nM; IC50 (A2780; Homo sapiens, A2780, read-out: IC50 (nM) A2780): 190 nM; IC50 ([2]; Mus musculus, P388): 570 nM; IC50 ([2]; Mus musculus, P388, MTT): 570 nM; IC50 ([4]; Homo sapiens, NCI-H460): 38 nM; IC50 ([5]; Homo sapiens, NCI-H596): 620 nM; H596/H460 ([5]; ratio of IC50, diaphorase null H596 over H460): 16; IC50 (HUVEC): 220 nM; IC50 (HUVEC; Homo sapiens, HUVEC): 230 nM; anti-tumour activity in vivo [6]: active; ability to act as substrate for DT-diaphorase (DT-diaphorase): good substrates for the enzyme; tumour damage [7]: extensive damage to the tumours

Row | Compound | melting point [°C] | IC50 (tubulin) [µM] | IC50 (A2780; read-out: A2780 IC50) [nM] | IC50 ([2]; MTT) [nM] | Colchicine % Inhibition [3] | also measured
8 | COc1ccc(/C=C(/C)c2cc(OC)c(OC)c(OC)c2)cc1O [Compound 19, Z-(3′-Hydroxy-4′-methoxyphenyl)-2-(3″,4″,5″-trimethoxyphenyl)propene] | 156 to 158 | 1.8 | – | – | – | IC50 [1]: 40 nM

From US7220784B2, “Substituted stilbenes and their reactions” (priority 2000, dated 2007)
